Source: ChEMBL document CHEMBL5154725, “SAR evolution towards potent C-terminal carboxamide peptide inhibitors of Zika virus NS2B-NS3 protease” (Bioorg Med Chem, 2022)
Non-standard residues stand in square brackets, D forms with d. Residues, ends and D or L forms follow the SMILES beside them. *: point of attachment. Phe(4-CH2NH2) = NCc1ccc(C[C@H](N)C(=O)O)cc1; Phe(4-NH2) = Nc1ccc(C[C@H](N)C(=O)O)cc1; AEF = NCCOc1ccc(C[C@H](N)C(=O)O)cc1; Aad = N[C@@H](CCCC(=O)O)C(=O)O; NHPhenethyl = c1ccc(CCN*)cc1; Orn = NCCC[C@H](N)C(=O)O; PhAc = O=C(Cc1ccccc1)*; NHBn = c1ccc(CN*)cc1

Test system: Zika virus
Assay: (§1) Inhibition of 6-His tagged-G4SG4 fused ZIKV NS2B (49 to 95 residues) R95A mutant-NS3 (1 to 170 residue) R29G mutant expressed in Escherichia coli BL21 (DE3) using Bz-Nle-K-RR-AMC substrate at 50 uM preincubated for 10 mins followed by substrate addition and measured after 30 mins by fluorescence assay relative to control
Conditions: time 40.0 min

Structure (SMILES) | inhibition
C[C@H](NC(=O)[C@H](CCCNC(=N)N)NC(=O)[C@H](CCCCN)NC(=O)[C@H](CCCCN)NC(=O)Cc1ccccc1)c1ccccc1 | 50%
N=C(N)NCCC[C@H](NC(=O)[C@H](CCCCN)NC(=O)[C@H](CCCC(N)=O)NC(=O)Cc1ccccc1)C(N)=O (PhAc-[Aad](NH2)-Lys-Arg-NH2) | 40%

Test system: Zika virus
Assay: as §1, with “100” for “50”
Conditions: time 40.0 min

Structure (SMILES) | inhibition
CC(=O)N[C@H](C(=O)NCC(=O)N[C@@H](CCCCN)C(=O)N[C@@H](CCCNC(=N)N)C(N)=O)[C@@H](C)O (Ac-TGKR-NH2) | 40%
N=C(N)NCCC[C@H](NC(=O)[C@H](Cc1ccc(CN)cc1)NC(=O)[C@H](CCCCN)NC(=O)Cc1ccccc1)C(N)=O (PhAc-Lys-[Phe(4-CH2NH2)]-Arg-NH2) | 66%
N=C(N)NCCC[C@H](NC(=O)[C@H](CCCCN)NC(=O)CNC(=O)Cc1ccccc1)C(N)=O (PhAc-Gly-Lys-Arg-NH2) | 40%
N=C(N)NCCC[C@H](NC(=O)[C@H](CCCCN)NC(=O)CNC(=O)Cc1ccccc1)C(=O)O (PhAc-Gly-Lys-Arg-OH) | 40%
CC(=O)N[C@H](C(=O)NCC(=O)N[C@@H](CCCCN)C(=O)N[C@@H](CCCNC(=N)N)C(=O)O)[C@@H](C)O (Ac-TGKR-OH) | 40%

Test system: not listed separately
Assay: Inhibition of 6-His tagged-G4SG4 fused ZIKV NS2B (49 to 95 residues) R95A mutant-NS3 (1 to 170 residue) R29G mutant expressed in Escherichia coli BL21 (DE3) using Bz-Nle-K-RR-AMC substrate preincubated for 10 mins followed by substrate addition and measured after 30 mins by fluorescence assay
Set-up: species or system Zika virus
Conditions: not given

Structure (SMILES) | IC50
N=C(N)NCCC[C@H](NC(=O)[C@H](Cc1ccc(OCCN)cc1)NC(=O)[C@H](CCCCN)NC(=O)Cc1ccccc1)C(N)=O (PhAc-Lys-[AEF]-Arg-NH2) | > 100000 nM
NCCCC[C@H](NC(=O)Cc1ccccc1)C(=O)N[C@@H](CCCCN)C(=O)N[C@@H](C(N)=O)c1ccccc1 | 15000 nM
NCCCC[C@H](NC(=O)Cc1ccccc1)C(=O)N[C@@H](CCCCN)C(=O)N[C@H](C(=O)NCC1CCNCC1)c1ccc(OCc2ccc(C(F)(F)F)cc2)cc1 | 350 nM
NCCCC[C@H](NC(=O)Cc1ccccc1)C(=O)N[C@@H](CCCCN)C(=O)N[C@H](C(=O)NCc1cc(Cl)cc(Cl)c1)c1ccccc1 | 320 nM
NCCCC[C@H](NC(=O)Cc1ccc(Cl)c(Cl)c1)C(=O)N[C@@H](CCCCN)C(=O)N[C@H](C(=O)NCc1ccccc1)c1ccc(OCc2ccc(C(F)(F)F)cc2)cc1 | 170 nM
N=C(N)NCCC[C@H](NC(=O)c1cccs1)C(=O)N[C@@H](CCCCN)C(=O)N[C@H](C(N)=O)c1ccc(OCCc2ccccc2)cc1 | 9400 nM
NCCCC[C@H](NC(=O)Cc1ccc(Cl)c(Cl)c1)C(=O)N[C@@H](CCCCN)C(=O)N[C@H](C(=O)NCc1ccc(OCc2ccc(C(F)(F)F)cc2)cc1)c1ccccc1 | 170 nM
N=C(N)NCCC[C@H](NC(=O)[C@H](CCCCN)NC(=O)[C@H](CCCCN)NC(=O)Cc1ccc(Cl)c(Cl)c1)C(N)=O | 1230 nM
N=C(N)NCCC[C@H](NC(=O)[C@H](CCCCN)NC(=O)[C@H](CCCCN)NC(=O)Cc1cccs1)C(N)=O | 16500 nM
NCCCC[C@H](NC(=O)Cc1ccccc1)C(=O)N[C@@H](CCCCN)C(=O)N[C@H](C(=O)NCc1ccc(Cl)cc1)c1ccc(OCc2ccc(C(F)(F)F)cc2)cc1 | 160 nM
CN(C)Cc1ccc(CNC(=O)[C@H](CCCNC(=N)N)NC(=O)[C@H](CCCCN)NC(=O)[C@H](CCCCN)NC(=O)Cc2ccccc2)cc1 | 2800 nM
NCCCC[C@H](NC(=O)Cc1ccccc1)C(=O)N[C@@H](CCCCN)C(=O)N[C@H](C(=O)NCc1ccccc1)c1ccccc1 | 550 nM
COc1ccc(CNC(=O)[C@@H](NC(=O)[C@H](CCCCN)NC(=O)[C@H](CCCCN)NC(=O)Cc2ccccc2)c2ccc(OCc3ccc(C(F)(F)F)cc3)cc2)cc1 | 130 nM
N=C(N)NCCC[C@H](NC(=O)c1cccs1)C(=O)N[C@@H](CCCCN)C(=O)N[C@H](C(N)=O)c1ccc(OCc2ccc(C(F)(F)F)cc2)cc1 | 2500 nM
N=C(N)NCCC[C@H](NC(=O)[C@H](CCCCN)NC(=O)[C@H](Cc1ccc(OCCN)cc1)NC(=O)Cc1ccccc1)C(N)=O (PhAc-[AEF]-Lys-Arg-NH2) | 30700 nM
COc1ccc(CC(=O)N[C@@H](CCCCN)C(=O)N[C@@H](CCCCN)C(=O)N[C@H](C(=O)NCc2ccccc2)c2ccc(OCc3ccc(C(F)(F)F)cc3)cc2)cc1 | 270 nM
NCCCC[C@H](NC(=O)[C@H](CCCCN)NS(=O)(=O)Cc1ccccc1)C(=O)N[C@H](C(=O)NCc1ccccc1)c1ccc(OCc2ccc(C(F)(F)F)cc2)cc1 | 1800 nM
N=C(N)NCCC[C@H](NC(=O)[C@H](CCCCN)NC(=O)[C@H](CCCCN)NC(=O)Cc1ccccc1)C(=O)NCC1CCCCC1 | 1800 nM
N=C(N)NCCC[C@H](NC(=O)c1cccs1)C(=O)N[C@@H](CCCCN)C(=O)N[C@H](C(N)=O)c1ccc(OCCN2CCOCC2)cc1 | 22000 nM
COc1ccc([C@H](NC(=O)[C@H](CCCCN)NC(=O)[C@H](CCCNC(=N)N)NC(=O)c2cccs2)C(N)=O)cc1 | 44300 nM
NCCCC[C@H](NC(=O)Cc1ccccc1)C(=O)N[C@@H](CCCCN)C(=O)N[C@H](C(=O)NC1Cc2ccccc2C1)c1ccc(OCc2ccc(C(F)(F)F)cc2)cc1 | 2000 nM
N=C(N)NCCC[C@H](NC(=O)[C@H](CCCCN)NC(=O)[C@H](CCCCN)NC(=O)Cc1ccccc1)C(=O)NCc1cccnc1 | 10400 nM
NCCCC[C@H](NC(=O)Cc1ccccc1)C(=O)N[C@@H](CCCCN)C(=O)N[C@H](C(N)=O)c1ccccc1 | 7000 nM
N=C(N)NCCC[C@H](NC(=O)[C@H](CCCCN)NC(=O)[C@H](CCCCN)NC(=O)Cc1ccccc1)C(=O)NCc1ccncc1 | 14100 nM
CN(C)CCOc1ccc([C@H](NC(=O)[C@H](CCCCN)NC(=O)[C@H](CCCNC(=N)N)NC(=O)c2cccs2)C(N)=O)cc1 | 5500 nM
N=C(N)NCCC[C@H](NC(=O)c1cccs1)C(=O)N[C@@H](CCCCN)C(=O)N[C@@H](C(=O)NCc1ccccc1)c1ccc(OCc2ccc(C(F)(F)F)cc2)cc1 | 920 nM

Structure (SMILES) | IC50
N=C(N)NCCC[C@H](NC(=O)c1cccs1)C(=O)N[C@@H](CCCCN)C(=O)NC(C(N)=O)c1ccc(-c2ccc(C(F)(F)F)cc2)cc1 (mixture of isomers) | 6100 nM
N=C(N)NCCC[C@H](NC(=O)c1cccs1)C(=O)N[C@@H](CCCCN)C(=O)N[C@H](C(=O)NCc1ccccc1)c1ccc(OCc2ccc(C(F)(F)F)cc2)cc1 | 310 nM
N=C(N)NCCC[C@H](NC(=O)[C@H](CCCCN)NC(=O)[C@H](CCCCN)NC(=O)Cc1ccncc1)C(N)=O | 5200 nM
NCCCC[C@H](NC(=O)Cc1ccccc1)C(=O)N[C@@H](CCCCN)C(=O)N[C@H](C(=O)NCc1ccccc1)c1ccc(OCc2ccc(C(F)(F)F)cc2)cc1 | 90 nM
NCCCC[C@H](NC(=O)Oc1ccccc1)C(=O)N[C@@H](CCCCN)C(=O)N[C@H](C(=O)NCc1ccccc1)c1ccc(OCc2ccc(C(F)(F)F)cc2)cc1 | 840 nM
N=C(N)NCCC[C@H](NC(=O)[C@H](CCCCN)NC(=O)[C@H](CCCCN)NC(=O)Cc1ccccc1)C(=O)NCCc1ccccc1 (PhAc-Lys-Lys-Arg-NHPhenethyl) | 11600 nM
CN(Cc1ccccc1)C(=O)[C@@H](NC(=O)[C@H](CCCCN)NC(=O)[C@H](CCCCN)NC(=O)Cc1ccccc1)c1ccc(OCc2ccc(C(F)(F)F)cc2)cc1 | 4700 nM
NCCCC[C@H](NC(=O)Cc1ccccc1)C(=O)N[C@@H](CCCCN)C(=O)N[C@H](C(=O)NCc1ccc(OCc2ccc(C(F)(F)F)cc2)cc1)c1ccccc1 | 140 nM
CN(Cc1ccccc1)C(=O)[C@H](CCCNC(=N)N)NC(=O)[C@H](CCCCN)NC(=O)[C@H](CCCCN)NC(=O)Cc1ccccc1 | 70000 nM
N=C(N)NCCC[C@H](NC(=O)c1cccs1)C(=O)N[C@@H](CCCCN)C(=O)N[C@H](C(N)=O)c1ccc(OCc2ccncc2)cc1 | 12100 nM
N=C(N)NCCC[C@H](NC(=O)[C@H](Cc1ccc(N)cc1)NC(=O)[C@H](CCCCN)NC(=O)Cc1ccccc1)C(N)=O (PhAc-Lys-[Phe(4-NH2)]-Arg-NH2) | > 100000 nM
NCCCC[C@H](NC(=O)Cc1ccncc1)C(=O)N[C@@H](CCCCN)C(=O)N[C@H](C(=O)NCc1ccccc1)c1ccc(OCc2ccc(C(F)(F)F)cc2)cc1 | 69 nM
N=C(N)NCCC[C@H](NC(=O)[C@H](CCCCN)NC(=O)[C@H](CCCCN)NC(=O)Cc1ccccc1)C(=O)NCc1ccccc1 (PhAc-Lys-Lys-Arg-NHBn) | 7900 nM
N=C(N)NCCC[C@H](NC(=O)c1cccs1)C(=O)N[C@@H](CCCCN)C(=O)N[C@H](C(N)=O)c1ccc(O)cc1 | 10200 nM
N=C(N)NCCC[C@H](NC(=O)c1cccs1)C(=O)N[C@@H](CCCCN)C(=O)N[C@H](C(N)=O)c1ccc(OCc2ncco2)cc1 | > 100000 nM
NCCCC[C@H](NC(=O)Cc1ccccc1)C(=O)N[C@@H](CCCCN)C(=O)N[C@H](C(=O)NCc1cccc(OCc2ccc(C(F)(F)F)cc2)c1)c1ccccc1 | 240 nM
NCCCC[C@H](NC(=O)Cc1ccccc1)C(=O)N[C@@H](CCCCN)C(=O)N[C@H](C(=O)NCc1ccc(O)cc1)c1ccccc1 | 370 nM
NCCCC[C@H](NC(=O)Cc1ccccc1)C(=O)N[C@@H](CCCCN)C(=O)N[C@H](C(=O)Nc1ccccc1)c1ccc(OCc2ccc(C(F)(F)F)cc2)cc1 | 3400 nM
N=C(N)NCC[C@H](NC(=O)[C@H](CCCCN)NC(=O)[C@H](CCCCN)NC(=O)Cc1ccc(Cl)c(Cl)c1)C(=O)NCC1CCCCC1 | 1700 nM
NCCCC[C@H](NC(=O)Cc1ccccc1)C(=O)N[C@@H](CCCCN)C(=O)N[C@H](C(=O)NCc1ncco1)c1ccc(OCc2ccc(C(F)(F)F)cc2)cc1 | 1500 nM
NCCCC[C@H](NC(=O)Cc1ccccc1)C(=O)N[C@@H](CCCCN)C(=O)N[C@H](C(N)=O)c1ccc(OCc2ccc(C(F)(F)F)cc2)cc1 | 9200 nM
NCCCC[C@H](NC(=O)Nc1ccccc1)C(=O)N[C@@H](CCCCN)C(=O)N[C@H](C(=O)NCc1ccccc1)c1ccc(OCc2ccc(C(F)(F)F)cc2)cc1 | 160 nM
N=C(N)NCCC[C@H](NC(=O)[C@H](CCCCN)NC(=O)[C@H](CCCCN)NC(=O)C1(c2ccccc2)CC1)C(N)=O | 10100 nM
N=C(N)CCCC[C@H](NC(=O)[C@H](CCCCN)NC(=O)[C@H](Cc1ccc(C(N)=O)cc1)NC(=O)Cc1ccccc1)C(N)=O | 42300 nM
N=C(N)NCCC[C@H](NC(=O)[C@H](CCCN)NC(=O)[C@H](CCCCN)NC(=O)Cc1ccccc1)C(N)=O (PhAc-Lys-[Orn]-Arg-NH2) | 3900 nM
